Source: patent publication US10093630B2, “Pyrazole compounds and methods of making and using same” (ABIDE THERAPEUTICS, INC., priority 2014, dated 2018)

How the values were obtained:
Assay in all cases: In vitro competitive activity-based protein profiling (gel-based, FP-Rh or HT-01 probe)
Assay type in all cases: biochemical
ABHD6 = biological target: T1, ABHD6 (Mus musculus, UniProt Q8R2Y0); conditions: for inhibition at 1 µM: 1 μM inhibitor, read-out: % Inhibition at 1 μM, C = ABHD6; for inhibition at 10 µM: 10 μM inhibitor, read-out: % Inhibition at 10 μM, C = ABHD6
T1 construct: Proteomes (mouse brain membrane fraction or cell lysates); from tissue; host or cells: mouse brain membrane fraction (or cell lysates, not specified)
T1 sequence (Q8R2Y0 1-336): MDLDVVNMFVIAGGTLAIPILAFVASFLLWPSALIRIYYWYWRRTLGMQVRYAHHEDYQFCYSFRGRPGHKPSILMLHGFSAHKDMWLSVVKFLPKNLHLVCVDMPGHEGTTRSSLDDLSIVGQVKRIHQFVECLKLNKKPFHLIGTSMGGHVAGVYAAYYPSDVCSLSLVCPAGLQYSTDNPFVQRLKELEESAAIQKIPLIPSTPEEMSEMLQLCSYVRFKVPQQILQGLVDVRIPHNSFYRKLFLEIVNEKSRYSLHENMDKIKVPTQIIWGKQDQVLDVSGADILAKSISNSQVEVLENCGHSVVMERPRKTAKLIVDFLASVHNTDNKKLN
Experimental: (§1) In Vitro Competitive Activity-Based Protein Profiling.
(§2) Proteomes (mouse brain membrane fraction or cell lysates) (50 μL, 1.0 mg/mL total protein concentration) were preincubated with varying concentrations of inhibitors at 37° C. After 30 min, FP-Rh or HT-01 ([…], 50 μM in DMSO) was added and the mixture was incubated for another 30 min at 37° C. Reactions were quenched with SDS loading buffer (15 μL—4×) and run on SDS-PAGE. Following gel imaging, serine hydrolase activity was determined by measuring fluorescent intensity of gel bands corresponding to MAGL, ABHD6, FAAH, and PLA2G7 using ImageJ 1.43u software.

FAAH = biological target: T2, FAAH (Mus musculus, UniProt O08914); conditions: for inhibition at 1 µM: 1 μM inhibitor, read-out: % Inhibition at 1 μM, B = FAAH; for inhibition at 10 µM: 10 μM inhibitor, read-out: % Inhibition at 10 μM, B = FAAH
T2 construct: Proteomes (mouse brain membrane fraction or cell lysates); from tissue; host or cells: mouse brain membrane fraction (or cell lysates, not specified)
T2 sequence (O08914 1-579): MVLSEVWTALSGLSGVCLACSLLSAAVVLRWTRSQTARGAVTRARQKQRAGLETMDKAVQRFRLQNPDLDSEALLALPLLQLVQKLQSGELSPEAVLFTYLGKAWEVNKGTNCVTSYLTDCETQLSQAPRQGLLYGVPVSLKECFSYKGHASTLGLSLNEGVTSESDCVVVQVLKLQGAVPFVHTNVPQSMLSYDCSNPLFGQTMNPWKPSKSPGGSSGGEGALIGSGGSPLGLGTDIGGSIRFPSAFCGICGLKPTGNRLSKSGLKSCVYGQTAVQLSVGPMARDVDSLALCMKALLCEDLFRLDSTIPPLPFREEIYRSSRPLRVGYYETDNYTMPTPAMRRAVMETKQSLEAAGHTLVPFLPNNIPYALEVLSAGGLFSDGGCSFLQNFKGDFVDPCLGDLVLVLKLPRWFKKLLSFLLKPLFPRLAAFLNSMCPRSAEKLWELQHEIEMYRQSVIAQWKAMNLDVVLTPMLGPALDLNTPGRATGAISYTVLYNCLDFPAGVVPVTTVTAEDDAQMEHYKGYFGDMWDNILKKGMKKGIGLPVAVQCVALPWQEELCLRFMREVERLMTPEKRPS
Experimental: as §1, §2

MAGL = biological target: T3, MAGL (Mus musculus, UniProt O35678); conditions: for inhibition at 1 µM: 1 μM inhibitor; for inhibition at 10 µM: 10 μM inhibitor
T3 construct: Proteomes (mouse brain membrane fraction or cell lysates); from tissue; host or cells: mouse brain membrane fraction (or cell lysates, not specified)
T3 sequence (O35678 1-303): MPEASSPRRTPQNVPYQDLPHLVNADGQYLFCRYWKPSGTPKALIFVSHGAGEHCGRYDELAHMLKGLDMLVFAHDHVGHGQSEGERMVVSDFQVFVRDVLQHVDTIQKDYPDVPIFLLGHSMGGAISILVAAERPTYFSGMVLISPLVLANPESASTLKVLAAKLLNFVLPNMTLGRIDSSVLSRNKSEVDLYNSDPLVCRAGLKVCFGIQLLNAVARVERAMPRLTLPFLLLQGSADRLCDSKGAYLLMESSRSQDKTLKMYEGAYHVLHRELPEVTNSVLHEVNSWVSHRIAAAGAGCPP
Experimental: as §1, §2

PLA2G7 = biological target: T4, PLA2G7 (Mus musculus, UniProt Q60963); conditions: for inhibition at 1 µM: 1 μM inhibitor, read-out: % Inhibition at 1 μM, D = PLA2G7; for inhibition at 10 µM: 10 μM inhibitor, read-out: % Inhibition at 10 μM, D = PLA2G7
T4 construct: Proteomes (mouse brain membrane fraction or cell lysates); from tissue; host or cells: mouse brain membrane fraction (or cell lysates, not specified)
T4 sequence (Q60963 22-440): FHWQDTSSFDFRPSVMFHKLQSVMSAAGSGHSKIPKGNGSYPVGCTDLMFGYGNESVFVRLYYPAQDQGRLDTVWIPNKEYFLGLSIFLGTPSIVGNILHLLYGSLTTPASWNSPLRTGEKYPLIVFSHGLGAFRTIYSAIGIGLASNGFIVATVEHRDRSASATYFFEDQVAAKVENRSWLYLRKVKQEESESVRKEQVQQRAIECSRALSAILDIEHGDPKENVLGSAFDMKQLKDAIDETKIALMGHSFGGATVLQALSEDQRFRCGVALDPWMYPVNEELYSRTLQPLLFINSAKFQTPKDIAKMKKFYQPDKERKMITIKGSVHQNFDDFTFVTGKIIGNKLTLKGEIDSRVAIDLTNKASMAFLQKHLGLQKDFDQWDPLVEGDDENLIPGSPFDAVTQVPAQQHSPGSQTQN
Experimental: as §1, §2

Row | inhibition at 1 µM (ABHD6) | inhibition at 10 µM (ABHD6) | inhibition at 1 µM (FAAH) | inhibition at 10 µM (FAAH) | inhibition at 1 µM (MAGL) | inhibition at 10 µM (MAGL) | inhibition at 1 µM (PLA2G7) | inhibition at 10 µM (PLA2G7) | IC50 (ABHD6; mouse brain membrane fraction or cell lysates, 30 min preincubation at 37° C., read-out: Mouse (IC50 value, nM) ABHD6) | IC50 (FAAH; mouse brain membrane fraction or cell lysates, 30 min preincubation at 37° C., read-out: Mouse (IC50 value, nM) FAAH) | IC50 (MAGL; mouse brain membrane fraction or cell lysates, 30 min preincubation at 37° C., read-out: Mouse (IC50 value, nM) MAGL) | Structure (SMILES)
1 | > 75% | > 75% | > 75% | > 75% | > 75% | > 75% | > 75% | > 75% | – | – | – | N#Cc1cnn(C(=O)N2CCN(Cc3ccc(Oc4ccccc4)cc3)CC2)c1 [Example 18, 1-(4-(4-Phenoxybenzyl)piperazine-1-carbonyl)-1H-pyrazole-4-carbonitrile]
2 | < 25% | > 75% | > 75% | > 75% | 25 to 75% | > 75% | < 25% | < 25% | – | – | – | O=C(N1CCN(Cc2ccc(OCc3ccccc3)cc2)CC1)n1cccn1 [Example 19, (4-(4-(Benzyloxy)benzyl)piperazin-1-yl)(1H-pyrazol-1-yl)methanone]
3 | 25 to 75% | > 75% | < 25% | > 75% | 25 to 75% | > 75% | < 25% | 25 to 75% | – | – | – | Cc1cnn(C(=O)N2CCN(Cc3ccc(OCc4ccccc4)cc3)CC2)c1 [Example 20, (4-(4-(Benzyloxy)benzyl)piperazin-1-yl)(4-methyl-1H-pyrazol-1-yl)methanone]
4 | > 75% | > 75% | > 75% | > 75% | > 75% | > 75% | < 25% | > 75% | < 100 nM | < 100 nM | < 100 nM | N#Cc1cnn(C(=O)N2CCN(Cc3ccc(OCc4ccccc4)cc3)CC2)c1 [Example 21, 1-(4-(4-(Benzyloxy)benzyl)piperazine-1-carbonyl)-1H-pyrazole-4-carbonitrile]
5 | < 25% | > 75% | < 25% | > 75% | > 75% | > 75% | < 25% | < 25% | – | – | – | O=C(N1CCN(Cc2ccc(-c3ccccc3)cc2)CC1)n1cccn1 [Example 22, (4-([1,1′-Biphenyl]-4-ylmethyl)piperazin-1-yl)(1H-pyrazol-1-yl)methanone]
6 | 25 to 75% | > 75% | < 25% | 25 to 75% | > 75% | > 75% | < 25% | > 75% | – | – | – | Cc1cnn(C(=O)N2CCN(Cc3ccc(-c4ccccc4)cc3)CC2)c1 [Example 23, (4-([1,1′-Biphenyl]-4-ylmethyl)piperazin-1-yl)(4-methyl-1H-pyrazol-1-yl)methanone]
7 | > 75% | > 75% | > 75% | > 75% | > 75% | > 75% | > 75% | > 75% | – | – | – | N#Cc1cnn(C(=O)N2CCN(Cc3ccc(-c4ccccc4)cc3)CC2)c1 [Example 24, 1-(4-([1,1′-Biphenyl]-4-ylmethyl)piperazine-1-carbonyl)-1H-pyrazole-4-carbonitrile]
8 | < 25% | 25 to 75% | < 25% | < 25% | < 25% | < 25% | < 25% | < 25% | – | – | – | CC(C)(C)OC(=O)N1CCCN(C(=O)n2cccn2)CC1 [Example 25, tert-Butyl 4-(1H-pyrazole-1-carbonyl)-1,4-diazepane-1-carboxylate]
9 | 25 to 75% | > 75% | 25 to 75% | > 75% | < 25% | 25 to 75% | < 25% | < 25% | – | – | – | Cc1cnn(C(=O)N2CCCN(C(=O)OC(C)(C)C)CC2)c1 [Example 26, tert-Butyl 4-(4-methyl-1H-pyrazole-1-carbonyl)-1,4-diazepane-1-carboxylate]
10 | > 75% | > 75% | > 75% | > 75% | > 75% | > 75% | > 75% | > 75% | – | – | – | CC(C)(C)OC(=O)N1CCCN(C(=O)n2cc(C#N)cn2)CC1 [Example 27, tert-Butyl 4-(4-cyano-1H-pyrazole-1-carbonyl)-1,4-diazepane-1-carboxylate]
11 | < 25% | 25 to 75% | < 25% | 25 to 75% | < 25% | 25 to 75% | < 25% | < 25% | – | – | – | CN(CCN(C)C(=O)n1cccn1)C(=O)OC(C)(C)C [Example 28, tert-Butyl methyl(2-(N-methyl-1H-pyrazole-1-carboxamido)ethyl)carbamate]
12 | < 25% | > 75% | < 25% | 25 to 75% | < 25% | 25 to 75% | < 25% | < 25% | – | – | – | Cc1cnn(C(=O)N(C)CCN(C)C(=O)OC(C)(C)C)c1 [Example 29, tert-Butyl (2-(N,4-dimethyl-1H-pyrazole-1-carboxamido)ethyl)(methyl)carbamate]
13 | – | < 25% | – | < 25% | – | < 25% | – | < 25% | – | – | – | O=C(NCCCc1ccccc1)n1cccn1 [Example 31, N-(3-Phenylpropyl)-1H-pyrazole-1-carboxamide]
14 | – | < 25% | – | < 25% | – | < 25% | – | < 25% | – | – | – | Cc1cnn(C(=O)NCCCc2ccccc2)c1 [Example 32, 4-Methyl-N-(3-phenylpropyl)-1H-pyrazole-1-carboxamide]
15 | < 25% | < 25% | < 25% | > 75% | < 25% | < 25% | < 25% | < 25% | – | – | – | N#Cc1cnn(C(=O)NCCCc2ccccc2)c1 [Example 33, 4-Cyano-N-(3-phenylpropyl)-1H-pyrazole-1-carboxamide]
